The record followed here is patent US20130158070A1, “CONJUGATES OF POLYUNSATURATED FATTY ACIDS AND AMINE-CONTAINING COMPOUNDS AND USES THEREOF” (priority 2010, published 2013).

Data set [1] in a line: Acute intraperitoneal (IP) toxicity in the mouse. To be noted: both sexes, in vivo, single IP injection, male and female ICR mice, read-out: MTD (Maximum Tolerated Dose). As for the experimental part: The objective of this study was to determine the MTD (Maximum Tolerated Dose) and/or assess the potential toxic effects in terms of the MFD (Maximum Feasible Dose) following an acute intraperitoneal (IP) injection of the Test Item MWL002 (Batch No.: 201109) to male and female ICR mice, in consideration of its intended use as an anti-inflammatory and pain relief agent.
MWL002 (Batch No.: 201109) was injected at two dose levels of 1000 (corresponding to the MFD) and 200 mg/kg to two groups consisting of three male and three female ICR mice per group, by a single intraperitoneal (IP) injection. An additional equally-sized group was injected with vehicle and served as the Control group. Dosing was sequential using three male and three female mice per step at 14 days interval. The Test Item or Vehicle Control Dosing Solutions were freshly prepared by the Testing Facility on each day of dosing, by diluting the Test Item or Vehicle Control with Physiological Saline according to the appropriate dose level and a constant volume dosage of 4 ml/kg.

Data set [2] deals with TNBS-induced ulcerative colitis. The data set is described as follows: TNBS-induced colitis (ulcerative colitis) in rats. The class given is in vivo. On the procedure:
Exemplary conjugates were tested for the effect on inflammatory bowel disease IBD (ulcerative colitis) in rats.
Briefly, ulcerative colitis was induced by tri-nitrobenzene sulfunic acid (TNBS) as described in the literature. Rats were divided into 4 groups, (−) sham (healthy), (+) control ulcerative colitis (UC, not treated), UC treated with the tested conjugate (25 mg/kg), and UC treated with 5-amino salicylic acid (5-ASA 25 mg/kg). The tested conjugate and 5-ASA were administered rectally during all the period of the experiment. At the end of the experiment animals were sacrificed and the colon was isolated to test the severity of the inflammation. The severity of the inflammation was tested by measurement of the myeloperoxidase activity (MPO activity) in the inflamed area of the colon.

In data set [3] the test system is collagen induced arthritis. The data set is described as follows: Collagen induced arthritis (CIA), PGE2 production and TNFα levels. The class given is in vivo, black/57 mice. To be noted: 250 mg/(kg/day) orally, 21 days, compared to Ibuprofen 500 mg/(kg/day). As for the experimental part: Male black/57 mice, age 8-10 weeks, were used in in vivo study of PGE2 production and TNFα levels in collagen induced arthritis (CIA) model.
Bovine CII (type II collagen CII, Sigma, St. Louis, Mo., USA) was dissolved in 0.1 M acetic acid overnight at 4° C. and was thereafter emulsified in an equal volume of complete Freund's adjuvant (Sigma). The mice were immunized intradermally at the base of the tail with 100 μl of emulsion containing 100 μg of CII. On day 21, mice were boosted intraperitoneally with 100 μg CII dissolved in phosphate buffered saline (PBS).
The tested conjugate or Ibuprofen (Sigma, Israel) were dissolved in 80% Cremophor EL:saline 80%:20%, respectively.
Mice were randomly selected and assigned to one of the following groups: tested conjugate (250 mg/(kg/day); n=4), Iboprofen (500 mg/ (kg/day); n=4) or vehicle (n=4). The tested conjugate and Ibuprofen were administered orally. Treatment was given daily for a period of 21 days.
Joint tissues were prepared as previously described for measuring the production of PGE2 and cytokines. […] PGE2 concentration was measured with a commercial radio immunoassay (RIA) kit (Amersham, UK) according to the manufacturer's instructions. […] Results were expressed as pg/ml of serum or supernatant from joint homogenate.

For `CC/C=C\C/C=C\C/C=C\C/C=C\C/C=C\C/C=C\CCC(=O)NCCS(=O)(=O)O` [MWL002, N-docosa-4,7,10,13,16,19-hexaenoyl-taurine], the MTD in data set [1] lay within 200 to 1000 mg/kg.

With `CCC=CCC=CCC=CCC=CCC=CCC=CCCC(=O)N1CC(O)CC1C(=O)O` (stereo not drawn) [MWL001], the body weight entry in data set [2] (UC rats, throughout assay period) is reported as “no decrease”. Further, in data set [2] (rectal, 50 mg/kg as printed, compared to 5-ASA, inflamed colon), the “MPO activity (severity index)” value was “significant decrease”. Besides, the “colon morphology and inflammation signs (images)” value in data set [2] (ulcerated colon segment, compared to non-treated or 5-ASA treated) was “normal clear anatomic morphology and a significant decrease in inflammation signs”. Besides, in data set [3], the “Prostaglandin E2 levels in the joints” value was “significant decrease” and the TNF-α levels entry is “significant decrease”.

One may read the MTD as the highest dose tested that stayed within the study's limit of toxicity.
